In patent publication US20020137929A1, “1 - (3-heterocyclylphenyl) isothiourea, -isourea, -guanidine and -amidine herbicidal agents” (Intellectual Property Department, BASF Aktiengesellschaft, priority 1998, published 2002):

What was measured:
[1] = tested on: TRZAWR (Wheat, Winter, cv Riband); test: Postemergence herbicidal evaluation; assay type: in vivo, Triticum aestivum; conditions: postemergence
Outline: (§1)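 Rate range approx. 0.0156–0.500 kg/ha. Foliar application at 40 psi to ~2-week seedlings; surfactant 0.5% TWEEN 20 in 50/50 acetone/water. Evaluation 4–5 wk post-treatment by 0–9 visual injury score, means of replicate tests.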

CYPIR (Rice Flatsedge) = test: Preemergence weed control under flooded paddy conditions; assay type: in vivo, Cyperus iria; conditions: rated 3-4 weeks after treatment
Outline: (§2)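 Flooded-pot preemergence screen with silt loam and seeds in the upper 0.5 cm. Dose about 0.0313 to 0.500 kg/ha, delivered into flood water; visual 0-9 score after 3 to 4 weeks.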

[2] = tested on: ECHORC (Watergrass (Calif.)); test: Postemergence weed control under flooded paddy conditions; assay type: in vivo, Echinochloa oryzoides; conditions: postemergence weeds, rated 3 to 4 weeks after treatment
Source text: Results of herbicide evaluation are expressed on a rating scale (0-9). The scale is based upon a visual observation of plant stand, vigor, malformation, size, chlorosis and overall plant appearance as compared with a control.
Plastic containers containing weeds which are 3 to 5 cm tall and rice seedlings at the 1.5 to 2.5 leaf stage are flooded with water. The water is maintained at 1.5 to 3 cm above the soil surface for the duration of the experiment. Test compounds are applied as aqueous/ acetone mixtures 50/50 v/v directly into the flood water to provide the equivalent of about 0.0313 to 0.500 kg/ha of active ingredient. The treated containers are placed on greenhouse benches and cared for in accordance with conventional greenhouse procedures. Three to four weeks after treatment, the test is terminated and each container is examined and herbicidal effect rated according to the rating system provided in Example 37. The compounds evaluated are reported by compound number given in Example 37.

SETVI (Foxtail, Green) [3] = test: Postemergence herbicidal evaluation; assay type: in vivo, Setaria viridis; conditions: postemergence
Outline: as §1

[4] = tested on: IPOHE (Morningglory, Ivyleaf); test: Preemergence herbicidal evaluation; assay type: in vivo, Ipomoea hederacea; conditions: preemergence, rated 4-5 weeks after treatment, 0-9 scale
Outline: (§3)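 Rating at 4–5 wk post-spray on a 0–9 visual scale vs control. Application: aqueous acetone, ~0.0156–0.500 kg/ha, to soil surface after seeding, preemergence.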

[5] = tested on: ECHORC (Watergrass (Calif.)); test: Preemergence weed control under flooded paddy conditions; assay type: in vivo, Echinochloa oryzoides; conditions: rated 3-4 weeks after treatment
Outline: as §2

ZEAMX (Corn, Field) = test: Preemergence herbicidal evaluation; assay type: in vivo, Zea mays; conditions: preemergence, rated 4-5 weeks after treatment, 0-9 scale
Outline: as §3

MOOVA (Monochoria) = test: Preemergence weed control under flooded paddy conditions; assay type: in vivo, Monochoria vaginalis; conditions: rated 3-4 weeks after treatment
Outline: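 Values are visual 0-9 scores against a control for a preemergence application into paddy flood water at about 0.0313 to 0.500 kg/ha. Greenhouse duration was three to four weeks.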

ECHCG (Barnyardgrass) = test: Preemergence herbicidal evaluation; assay type: in vivo, Echinochloa crus-galli; conditions: preemergence, rated 4-5 weeks after treatment, 0-9 scale
Outline: as §3

SETVI (Foxtail, Green) [6] = test: Preemergence herbicidal evaluation; assay type: in vivo, Setaria viridis; conditions: preemergence, rated 4-5 weeks after treatment, 0-9 scale
Outline: as §3

GALAP (Galium) = test: Postemergence herbicidal evaluation; assay type: in vivo, Galium aparine; conditions: postemergence
Outline: as §1

[7] = tested on: IPOHE (Morningglory, Ivyleaf); test: Postemergence herbicidal evaluation; assay type: in vivo, Ipomoea hederacea; conditions: postemergence
Outline: as §1

ABUTH (Velvetleaf) = test: Preemergence herbicidal evaluation; assay type: in vivo, Abutilon theophrasti; conditions: preemergence, rated 4-5 weeks after treatment, 0-9 scale
Outline: as §3

For `C=CCN1C(=O)C(CC(=O)NS(C)(=O)=O)SC1=Nc1cc(-n2c(=O)cc(C(F)(F)F)n(C)c2=O)c(F)cc1Cl` (stereo not drawn) [Compound 96, 3-Allyl-2-{{2-chloro-5-[3,6-dihydro-3-methyl-2,6-dioxo-4-(trifluoromethyl)-1(2H)-pryimidinyl]-4-fluorophenyl}imino}-N-(methylsulfonyl)-4-oxo-5-thiazolidineacetamide], the TRZAWR herbicidal rating ([1]; rate 0.0156 kg/ha) was 2.0, the TRZAWR herbicidal rating ([1]; rate 0.0313 kg/ha) was 2.5 and the TRZAWR herbicidal rating ([1]; rate 0.0625 kg/ha) was 2.5. The TRZAWR herbicidal rating ([1]; rate 0.1250 kg/ha) was 3.0, the “CYPIR herbicidal effect rating” value (CYPIR (Rice Flatsedge); 0.0313 kg/ha) was 0.0 and the “CYPIR herbicidal effect rating” value (CYPIR (Rice Flatsedge); 0.0625 kg/ha) was 5.0. For the same compound, the “CYPIR herbicidal effect rating” value (CYPIR (Rice Flatsedge); 0.1250 kg/ha) was 6.0, the “CYPIR herbicidal effect rating” value (CYPIR (Rice Flatsedge); 0.2500 kg/ha) was 6.0 and the “Herbicidal rating ECHORC” value ([2]; Rate 0.0313 kg/ha) was 0.0. For the same compound, the “Herbicidal rating ECHORC” value ([2]; Rate 0.0625 kg/ha) was 0.0, the “Herbicidal rating ECHORC” value ([2]; Rate 0.1250 kg/ha) was 0.0 and the “Herbicidal rating ECHORC” value ([2]; Rate 0.2500 kg/ha) was 3.0. For the same compound, the SETVI herbicidal rating (SETVI (Foxtail, Green) [3]; rate 0.0156 kg/ha) was 0.0, the SETVI herbicidal rating (SETVI (Foxtail, Green) [3]; rate 0.0313 kg/ha) was 1.0 and the SETVI herbicidal rating (SETVI (Foxtail, Green) [3]; rate 0.0625 kg/ha) was 7.0. It also gave an SETVI herbicidal rating (SETVI (Foxtail, Green) [3]; rate 0.1250 kg/ha) of 4.0, an IPOHE rating ([4]; 0.0313 kg/ha) of 0.0 and an IPOHE rating ([4]; 0.0625 kg/ha) of 0.0. It also gave an IPOHE rating ([4]; 0.1250 kg/ha) of 1.0, an IPOHE rating ([4]; 0.2500 kg/ha) of 9.0 and an IPOHE rating ([4]; 0.5000 kg/ha) of 9.0. For the same compound, the “ECHORC herbicidal effect rating” value ([5]; 0.0313 kg/ha) was 0.0, the “ECHORC herbicidal effect rating” value ([5]; 0.0625 kg/ha) was 0.0 and the “ECHORC herbicidal effect rating” value ([5]; 0.1250 kg/ha) was 0.0. The “ECHORC herbicidal effect rating” value ([5]; 0.2500 kg/ha) was 3.0, the ZEAMX rating (ZEAMX (Corn, Field); 0.0313 kg/ha) was 0.0 and the ZEAMX rating (ZEAMX (Corn, Field); 0.0625 kg/ha) was 1.0. For the same compound, the ZEAMX rating (ZEAMX (Corn, Field); 0.1250 kg/ha) was 0.0, the ZEAMX rating (ZEAMX (Corn, Field); 0.2500 kg/ha) was 2.0 and the ZEAMX rating (ZEAMX (Corn, Field); 0.5000 kg/ha) was 4.0. The “MOOVA herbicidal effect rating” value (MOOVA (Monochoria); 0.0313 kg/ha) was 2.0, the “MOOVA herbicidal effect rating” value (MOOVA (Monochoria); 0.0625 kg/ha) was 2.0 and the “MOOVA herbicidal effect rating” value (MOOVA (Monochoria); 0.1250 kg/ha) was 3.0. For the same compound, the “MOOVA herbicidal effect rating” value (MOOVA (Monochoria); 0.2500 kg/ha) was 3.0, the ECHCG rating (ECHCG (Barnyardgrass); 0.0313 kg/ha) was 0.0 and the ECHCG rating (ECHCG (Barnyardgrass); 0.0625 kg/ha) was 0.0. For the same compound, the ECHCG rating (ECHCG (Barnyardgrass); 0.1250 kg/ha) was 0.0, the ECHCG rating (ECHCG (Barnyardgrass); 0.2500 kg/ha) was 1.0 and the ECHCG rating (ECHCG (Barnyardgrass); 0.5000 kg/ha) was 1.0. The SETVI rating (SETVI (Foxtail, Green) [6]; 0.0313 kg/ha) was 1.0, the SETVI rating (SETVI (Foxtail, Green) [6]; 0.0625 kg/ha) was 1.0 and the SETVI rating (SETVI (Foxtail, Green) [6]; 0.1250 kg/ha) was 0.0. For the same compound, the SETVI rating (SETVI (Foxtail, Green) [6]; 0.2500 kg/ha) was 1.0, the SETVI rating (SETVI (Foxtail, Green) [6]; 0.5000 kg/ha) was 4.0 and the GALAP herbicidal rating (GALAP (Galium); rate 0.0156 kg/ha) was 0.0. It also gave a GALAP herbicidal rating (GALAP (Galium); rate 0.0313 kg/ha) of 0.0, a GALAP herbicidal rating (GALAP (Galium); rate 0.0625 kg/ha) of 1.0 and a GALAP herbicidal rating (GALAP (Galium); rate 0.1250 kg/ha) of 0.0. It also gave an IPOHE herbicidal rating ([7]; rate 0.0156 kg/ha) of 6.0, an IPOHE herbicidal rating ([7]; rate 0.0313 kg/ha) of 9.0 and an IPOHE herbicidal rating ([7]; rate 0.0625 kg/ha) of 9.0. The IPOHE herbicidal rating ([7]; rate 0.1250 kg/ha) was 9.0, the ABUTH rating (ABUTH (Velvetleaf); 0.0313 kg/ha) was 1.0 and the ABUTH rating (ABUTH (Velvetleaf); 0.0625 kg/ha) was 9.0. It also gave an ABUTH rating (ABUTH (Velvetleaf); 0.1250 kg/ha) of 9.0, an ABUTH rating (ABUTH (Velvetleaf); 0.2500 kg/ha) of 9.0 and an ABUTH rating (ABUTH (Velvetleaf); 0.5000 kg/ha) of 9.0.
